Measured values from patent US12691112B2, “FGFR tyrosine kinase inhibitors for the treatment of urothelial carcinoma” (Janssen Pharmaceutica NV, priority 2019, dated 2026).
Like-named read-outs stand apart in the source and are kept apart here.

Test system: subjects with metastatic or surgically unresectable urothelial cancer
[1] = all-causality, 10 mg intermittent, n = 33
[2] = treatment-emergent, all-causality, 8 mg Continuous, Regimen 3 (n = 99)
[3] = treatment-related, 6 mg Continuous, Regimen 2 (n = 78)
[4] = treatment-related, 8 mg Continuous Erdafitinib, Regimen 3 (n = 99)
[5] = treatment-related, 10 mg Intermittent, Regimen 1 (n = 33)

## COc1cc(OC)cc(N(CCNC(C)C)c2ccc3ncc(-c4cnn(C)c4)nc3c2)c1 [erdafitinib, N-(3,5-dimethoxy-phenyl)-N′-(1-methylethyl)-N-[3-(1-methyl-1H-pyrazol-4-yl)quinoxalin-6-yl]ethane-1,2-diamine]
[1]
  Decreased appetite, grade ≥ 3: 1 no.
  Diarrhea, any grade: 14 no.
  Diarrhea, grade 1: 7 no.
  Diarrhea, grade 2: 6 no.
  Diarrhea, grade ≥ 3: 1 no.
  Dry eye, any grade: 3 no.
  Dry eye, grade 1: 2 no.
  Dry eye, grade 2: 1 no.
  Dry eye, grade ≥ 3: 0 no.
  Dry mouth, any grade: 16 no.
  Dry mouth, grade 1: 15 no.
  Dry mouth, grade 2: 1 no.
  Dry mouth, grade ≥ 3: 0 no.
  Dry skin, any grade: 9 no.
  Dry skin, grade 1: 8 no.
  Dry skin, grade 2: 1 no.
  Dry skin, grade ≥ 3: 0 no.
  Dysgeusia, any grade: 10 no.
  Dysgeusia, grade 1: 7 no.
  Dysgeusia, grade 2: 3 no.
  Dysgeusia, grade ≥ 3: 0 no.
  Dyspepsia, any grade: 3 no.
  Dyspepsia, grade 1: 2 no.
  Dyspepsia, grade 2: 1 no.
  Dyspepsia, grade ≥ 3: 0 no.
  Dyspnea, any grade: 8 no.
  Dyspnea, grade 1: 3 no.
  Dyspnea, grade 2: 2 no.
  Dyspnea, grade ≥ 3: 3 no.
  Fatigue, any grade: 6 no.
  Fatigue, grade 1: 4 no.
  Fatigue, grade 2: 2 no.
  Fatigue, grade ≥ 3: 0 no.
  Hand-foot syndrome, any grade: 2 no.
  Hand-foot syndrome, grade 1: 0 no.
  Hand-foot syndrome, grade 2: 2 no.
  Hand-foot syndrome, grade ≥ 3: 0 no.
  Hematuria, any grade: 3 no.
  Hematuria, grade 1: 1 no.
  Hematuria, grade 2: 2 no.
  Hematuria, grade ≥ 3: 0 no.
  Hyperphosphatemia, any grade: 16 no.
  Hyperphosphatemia, grade 1: 15 no.
  Hyperphosphatemia, grade 2: 1 no.
  Hyperphosphatemia, grade ≥ 3: 0 no.
  Hypomagnesemia, any grade: 2 no.
  Hypomagnesemia, grade 1: 2 no.
  Hypomagnesemia, grade 2: 0 no.
  Hypomagnesemia, grade ≥ 3: 0 no.
  Hyponatremia, any grade: 2 no.
  Hyponatremia, grade 1: 0 no.
  Hyponatremia, grade 2: 0 no.
  Hyponatremia, grade ≥ 3: 2 no.
  Insomnia, any grade: 3 no.
  Insomnia, grade 1: 0 no.
  Insomnia, grade 2: 3 no.
  Insomnia, grade ≥ 3: 0 no.
  Lacrimation increased, any grade: 6 no.
  Lacrimation increased, grade 1: 5 no.
  Lacrimation increased, grade 2: 1 no.
  Lacrimation increased, grade ≥ 3: 0 no.
  Nail dystrophy, any grade: 2 no.
  Nail dystrophy, grade 1: 2 no.
  Nail dystrophy, grade 2: 0 no.
  Nail dystrophy, grade ≥ 3: 0 no.
  Nausea, any grade: 5 no.
  Nausea, grade 1: 3 no.
  Nausea, grade 2: 2 no.
  Nausea, grade ≥ 3: 0 no.
  Onycholysis, any grade: 7 no.
  Onycholysis, grade 1: 3 no.
  Onycholysis, grade 2: 3 no.
  Onycholysis, grade ≥ 3: 1 no.
  Onychomadesis, any grade: 1 no.
  Onychomadesis, grade 1: 1 no.
  Onychomadesis, grade 2: 0 no.
  Onychomadesis, grade ≥ 3: 0 no.
  Oropharyngeal pain, any grade: 0 no.
  Oropharyngeal pain, grade 1: 0 no.
  Oropharyngeal pain, grade 2: 0 no.
  Oropharyngeal pain, grade ≥ 3: 0 no.
  Pain in extremity, any grade: 5 no.
  Pain in extremity, grade 1: 3 no.
  Pain in extremity, grade 2: 1 no.
  Pain in extremity, grade ≥ 3: 1 no.
  Paronychia, any grade: 2 no.
  Paronychia, grade 1: 0 no.
  Paronychia, grade 2: 2 no.
  Paronychia, grade ≥ 3: 0 no.
  Peripheral edema, any grade: 5 no.
  Peripheral edema, grade 1: 1 no.
  Peripheral edema, grade 2: 4 no.
  Peripheral edema, grade ≥ 3: 0 no.
  Pyrexia, any grade: 5 no.
  Pyrexia, grade 1: 5 no.
  Pyrexia, grade 2: 0 no.
  Pyrexia, grade ≥ 3: 0 no.
  Retinal detachment, any grade: 2 no.
  Retinal detachment, grade 1: 1 no.
  Retinal detachment, grade 2: 1 no.
  Retinal detachment, grade ≥ 3: 0 no.
  Stomatitis, any grade: 16 no.
  Stomatitis, grade 1: 9 no.
  Stomatitis, grade 2: 6 no.
  Stomatitis, grade ≥ 3: 1 no.
  Urinary tract infection, any grade: 4 no.
  Urinary tract infection, grade 1: 0 no.
  Urinary tract infection, grade 2: 2 no.
  Urinary tract infection, grade ≥ 3: 2 no.
  Vision blurred, any grade: 5 no.
  Vision blurred, grade 1: 4 no.
  Vision blurred, grade 2: 1 no.
  Vision blurred, grade ≥ 3: 0 no.
  Vomiting, any grade: 9 no.
  Vomiting, grade 1: 7 no.
  Vomiting, grade 2: 2 no.
  Vomiting, grade ≥ 3: 0 no.
  Weight decreased, any grade: 3 no.
  Weight decreased, grade 1: 1 no.
  Weight decreased, grade 2: 2 no.
  Weight decreased, grade ≥ 3: 0 no.
In vivo
  CSR leading to discontinuation: three patients
  discontinuation due to grade 1 hyperphosphatemia: One patient discontinued treatment
  normalization of phosphate elevation: normalized by cycle 5
  retinal vein or artery occlusion: no patient had retinal vein or artery occlusion
  time of peak phosphate elevation after erdafitinib initiation: 6 weeks
Myocardial infarction considered unrelated to treatment
  death as a result of an adverse event: One patient died as a result of an adverse event
Overall trial population
  patients with grade ≥3 treatment-emergent adverse events: 66%
Patients overall
  some type of eye disorder, regardless of relation to treatment: 54%
[2]
  Patients with Alopecia, Grade ≥3: 0 no.
  Patients with Decreased appetite, Grade ≥3: 0 no.
  Patients with Dry mouth, Grade ≥3: 0 no.
  Patients with Dry skin, Grade ≥3: 0 no.
  Patients with Urinary tract infection, Grade 1: 0 no.
  Patients with Vision blurred, Grade ≥3: 0 no.
[3]
  Patients with Alopecia, Any grade: 8 no.
  Patients with Alopecia, Grade 2: 0 no.
  Patients with Alopecia, Grade ≥3: 0 no.
  Patients with Conjunctivitis, Grade 2: 0 no.
  Patients with Conjunctivitis, Grade ≥3: 0 no.
  Patients with Diarrhea, Grade ≥3: 0 no.
  Patients with Dry skin, Grade ≥3: 0 no.
  Patients with Dysgeusia, Grade ≥3: 0 no.
  Patients with Hand-foot syndrome, Grade ≥3: 0 no.
  Patients with Hyperphosphatemia, Grade ≥3: 0 no.
  Patients with Lacrimation increased, Grade ≥3: 0 no.
  Patients with Nausea, Grade ≥3: 0 no.
  Patients with Onychomadesis, Grade ≥3: 0 no.
  Patients with Paronychia, Grade ≥3: 0 no.
  Patients with Retinal detachment, Grade ≥3: 0 no.
[4]
  Patients with Arrhythmia-related events, Any grade: 0 no.
  Patients with Arrhythmia-related events, Grade ≥3: 0 no.
[5]
  Patients with Alopecia, Grade ≥3: 0 no.
  Patients with Conjunctivitis, Grade ≥3: 0 no.
  Patients with Decreased appetite, Grade ≥3: 0 no.
  Patients with Diarrhea, Grade 2: 5 no.
  Patients with Dry mouth, Grade ≥3: 0 no.
  Patients with Dry skin, Grade ≥3: 0 no.
  Patients with Dysgeusia, Grade ≥3: 0 no.
  Patients with Fatigue, Grade ≥3: 0 no.
  Patients with Hand-foot syndrome, Grade 1: 0 no.
  Patients with Hand-foot syndrome, Grade ≥3: 0 no.
  Patients with Hyperphosphatemia, Grade ≥3: 0 no.
  Patients with Lacrimation increased, Grade 2: 0 no.
  Patients with Lacrimation increased, Grade ≥3: 0 no.
  Patients with Nausea, Grade ≥3: 0 no.
  Patients with Onychomadesis, Grade 2: 0 no.
  Patients with Onychomadesis, Grade ≥3: 0 no.
  Patients with Paronychia, Grade 1: 0 no.
  Patients with Paronychia, Grade ≥3: 0 no.
  Patients with Retinal detachment, Grade ≥3: 0 no.
  Patients with Vision blurred, Grade ≥3: 0 no.
